Holding throughout (format): biochemical
One experiment deals with T1, Human Tyk2 kinase domain (Homo sapiens, UniProt P29597).
T1 construct: comprising amino acids 886 to 1187; His10 (10 histidine residues) (C, cleaved yes); made in house
T1 sequence (P29597 886-1187): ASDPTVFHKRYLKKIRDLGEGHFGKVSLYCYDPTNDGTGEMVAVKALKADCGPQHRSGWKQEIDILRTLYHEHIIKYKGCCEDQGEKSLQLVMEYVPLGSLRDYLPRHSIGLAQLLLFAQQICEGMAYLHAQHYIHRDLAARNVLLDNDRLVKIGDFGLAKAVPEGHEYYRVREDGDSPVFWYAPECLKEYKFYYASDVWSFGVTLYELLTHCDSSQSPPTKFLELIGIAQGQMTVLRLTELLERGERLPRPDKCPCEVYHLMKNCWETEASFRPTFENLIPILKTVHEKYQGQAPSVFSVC
The experiment can be described thus: Tyk2 Inhibition Assay (Omnia kinase fluorescence peptide substrate). As to conditions: averaged IC50 ranges; 10 μM (Km app) or 1 mM ATP, 2 nM Tyk2. From the text:
(§1) The assays described in Examples A, B, C and D for the determination of Tyk2, JAK1, JAK2 and JAK3 kinase activity, respectively, utilized the Omnia® Kinase fluorescence peptide substrate-based technology (Invitrogen). The specific components of the assay mixture are described in Examples A, B, C and D. In these assays, Mg^2+ is chelated upon phosphorylation of the Omnia peptide by the kinase to form a bridge between the chelation-enhanced fluorophore Sox and the phosphate, resulting in an increase in fluorescence emission at 485 nm when excited at […]. The reactions were therefore read at excitation 360 nm and emission was measured at 485 nm every 50 seconds for 45 minutes using a PerkinElmer EnVision Multilabel Plate Reader.
(§2) The final buffer conditions for Tyk2, JAK1, JAK2, and JAK3 assays were as follows: 25 mM HEPES, pH 7.4, 10 mM MgCl2, 0.01% Triton X-100 and 1 mM DTT.
(§3) Compounds were prepared at 50× the final concentration in DMSO by conducting 3-fold serial dilutions from a 500-μM intermediate dilution to give a 10-point dosing curve having a high dose of 10 μM. Two-μL aliquots of these were transferred to a fresh plate for a ten-fold intermediate dilution with assay buffer. Five-μL aliquots of the diluted compounds were then transferred to 20-μL of assay mixtures described in Examples A, B, C and D for a final concentration of DMSO of 2%. A standard or reference compound was typically included on each assay plate to validate that plate. For each plate, percent of control (POC) values were calculated for each well according to the following equation: […]
(§4) IC50's were estimated from the POC's using a standard 4-parameter logistic model:
(§5) The IC50 is defined as the concentration of inhibitor at which the POC equals 50 for the fitted curve.
Compounds of Formula I were screened for their ability to inhibit Tyk2 using the general enzyme inhibition assay method, in which the assay mixture contained 10 μM (Km app) or 1 mM ATP, 8 μM Omnia® Y12 peptide (Catalog #IVGN KPZ3121C; Invitrogen Corporation, Carlsbad, Calif.) and 2 nM Tyk2 in a total volume of 20 μL. Human Tyk2 kinase domain, comprising amino acids 886 to 1187 with 10 additional histidine residues (histidine tag) on the carboxy terminus, was expressed and purified from bacculovirus in-house at Array BioPharma Inc. (Boulder, Colo.). The histidine tag was cleaved after purification using standard conditions.

For the next experiment, the target named is T2, JAK1 (Homo sapiens, UniProt P23458).
T2 construct: purchased Invitrogen Corporation, Carlsbad, Calif; IVGN PV4775
The experiment can be described thus: JAK1 Inhibition Assay (Omnia kinase fluorescence peptide substrate). As to conditions: averaged IC50 ranges; 40 μM (Km app) or 1 mM ATP, 15 nM JAK1.
Source text: as §1, §2, §3, §4, §5
Compounds of Formula I were screened for their ability to inhibit JAK1 using the general enzyme inhibition assay method, in which the assay mixture contained 40 μM (Km app) or 1 mM ATP, 8 μM Omnia® Y12 peptide (Catalog #IVGN KPZ3121C; Invitrogen Corporation, Carlsbad, Calif.) and 15 nM JAK1 in a total volume of 20 μL. JAK1 was purchased from Invitrogen Corporation, Carlsbad, Calif. (catalog #IVGN PV4775).

A further experiment addresses T3, JAK2 (Homo sapiens, UniProt O60674).
T3 construct: purchased Invitrogen Corporation, Carlsbad, Calif; IVGN PV4288
Kind of experiment: JAK2 Inhibition Assay (Omnia kinase fluorescence peptide substrate). As to conditions: averaged IC50 ranges; 25 μM (Km app) or 1 mM ATP, 5 nM JAK2.
Source text: as §1, §2, §3, §4, §5
Compounds of Formula I were screened for their ability to inhibit JAK2 using the general enzyme inhibition assay method, in which the assay mixture contained 25 μM (Km app) or 1 mM ATP, 10 μM Omnia® Y7 peptide (Catalog #IVGN KNZ3071C, Invitrogen Corporation, Carlsbad, Calif.) and 5 nM JAK2 in a total volume of 20 μL. JAK2 was purchased from Invitrogen Corporation, Carlsbad, Calif. (catalog #IVGN PV4288).

Another experiment deals with T4, JAK3 (Homo sapiens, UniProt P52333).
T4 construct: purchased Invitrogen Corporation, Carlsbad, Calif; IVGN PV4080
T4 sequence (P52333 1-1124): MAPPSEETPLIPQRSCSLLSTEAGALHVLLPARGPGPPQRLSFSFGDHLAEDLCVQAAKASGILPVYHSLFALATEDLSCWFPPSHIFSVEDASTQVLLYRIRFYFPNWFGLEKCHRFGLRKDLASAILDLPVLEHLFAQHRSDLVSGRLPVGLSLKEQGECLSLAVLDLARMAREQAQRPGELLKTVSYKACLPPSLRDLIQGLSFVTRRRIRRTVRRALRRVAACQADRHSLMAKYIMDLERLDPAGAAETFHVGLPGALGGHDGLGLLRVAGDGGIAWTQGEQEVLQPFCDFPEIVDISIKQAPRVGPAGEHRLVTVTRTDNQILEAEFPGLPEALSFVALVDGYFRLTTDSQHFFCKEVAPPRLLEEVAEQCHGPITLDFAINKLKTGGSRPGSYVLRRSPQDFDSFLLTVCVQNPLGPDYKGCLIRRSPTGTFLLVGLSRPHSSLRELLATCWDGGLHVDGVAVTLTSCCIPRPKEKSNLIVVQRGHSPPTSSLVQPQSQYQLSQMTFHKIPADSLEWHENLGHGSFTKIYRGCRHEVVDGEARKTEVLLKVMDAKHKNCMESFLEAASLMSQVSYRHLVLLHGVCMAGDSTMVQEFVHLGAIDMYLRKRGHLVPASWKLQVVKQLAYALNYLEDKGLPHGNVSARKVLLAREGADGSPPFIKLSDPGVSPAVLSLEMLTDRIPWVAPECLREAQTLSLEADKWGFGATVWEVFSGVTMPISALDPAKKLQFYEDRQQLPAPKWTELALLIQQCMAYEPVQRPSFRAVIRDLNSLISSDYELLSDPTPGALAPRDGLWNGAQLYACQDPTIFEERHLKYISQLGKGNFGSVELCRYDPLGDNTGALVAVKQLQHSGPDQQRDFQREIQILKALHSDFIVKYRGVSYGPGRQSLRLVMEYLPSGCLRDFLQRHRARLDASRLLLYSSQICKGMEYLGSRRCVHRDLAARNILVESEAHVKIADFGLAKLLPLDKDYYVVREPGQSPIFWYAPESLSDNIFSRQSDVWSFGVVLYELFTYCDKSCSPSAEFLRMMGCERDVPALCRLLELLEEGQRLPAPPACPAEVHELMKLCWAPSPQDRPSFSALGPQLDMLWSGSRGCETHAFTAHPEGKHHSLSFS
Kind of experiment: JAK3 Inhibition Assay (Omnia kinase fluorescence peptide substrate). As to conditions: averaged IC50 ranges; 10 μM (Km app) or 1 mM ATP, 2.5 nM JAK3.
Source text: as §1, §2, §3, §4, §5
Compounds of Formula I were screened for their ability to inhibit JAK3 using the general enzyme inhibition assay method, in which the assay mixture contained 10 μM (Km app) or 1 mM ATP, 10 μM Omnia® Y7 peptide (Catalog #IVGN KNZ3071C, Invitrogen Corporation, Carlsbad, Calif.) and 2.5 nM JAK3 in a total volume of 20 μL. JAK3 was purchased from Invitrogen Corporation, Carlsbad, Calif. (catalog #IVGN PV4080).

SMILES strings stand for the structures.

T2 sequence (P23458 whole entry): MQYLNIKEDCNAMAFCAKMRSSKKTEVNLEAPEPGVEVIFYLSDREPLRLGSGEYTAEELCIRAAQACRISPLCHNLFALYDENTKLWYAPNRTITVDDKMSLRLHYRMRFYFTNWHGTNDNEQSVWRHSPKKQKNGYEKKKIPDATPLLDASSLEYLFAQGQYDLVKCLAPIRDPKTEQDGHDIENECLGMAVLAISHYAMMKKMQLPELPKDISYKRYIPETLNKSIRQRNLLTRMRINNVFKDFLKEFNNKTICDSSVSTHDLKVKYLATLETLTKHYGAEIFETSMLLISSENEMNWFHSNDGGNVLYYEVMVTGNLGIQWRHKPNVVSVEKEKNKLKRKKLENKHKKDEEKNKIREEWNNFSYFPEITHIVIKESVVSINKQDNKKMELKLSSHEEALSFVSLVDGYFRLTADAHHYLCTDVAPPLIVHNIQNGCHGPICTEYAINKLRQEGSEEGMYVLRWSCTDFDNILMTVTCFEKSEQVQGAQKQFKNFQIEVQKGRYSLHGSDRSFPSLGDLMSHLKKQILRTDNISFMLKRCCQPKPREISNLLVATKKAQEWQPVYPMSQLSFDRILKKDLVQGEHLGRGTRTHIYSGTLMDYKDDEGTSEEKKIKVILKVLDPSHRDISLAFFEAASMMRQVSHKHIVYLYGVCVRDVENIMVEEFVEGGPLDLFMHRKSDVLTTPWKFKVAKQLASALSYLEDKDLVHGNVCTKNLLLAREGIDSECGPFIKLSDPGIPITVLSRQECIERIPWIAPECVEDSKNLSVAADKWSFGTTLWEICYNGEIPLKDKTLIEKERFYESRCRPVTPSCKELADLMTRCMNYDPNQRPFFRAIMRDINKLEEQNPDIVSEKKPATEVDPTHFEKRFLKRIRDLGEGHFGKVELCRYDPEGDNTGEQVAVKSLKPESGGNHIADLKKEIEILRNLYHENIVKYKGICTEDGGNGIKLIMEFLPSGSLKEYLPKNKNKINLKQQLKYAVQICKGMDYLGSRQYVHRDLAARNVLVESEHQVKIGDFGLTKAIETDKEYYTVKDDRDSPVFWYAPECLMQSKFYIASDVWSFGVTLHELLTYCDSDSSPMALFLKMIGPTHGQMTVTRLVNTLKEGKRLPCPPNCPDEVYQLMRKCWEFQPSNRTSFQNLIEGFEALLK
T3 sequence (O60674 whole entry): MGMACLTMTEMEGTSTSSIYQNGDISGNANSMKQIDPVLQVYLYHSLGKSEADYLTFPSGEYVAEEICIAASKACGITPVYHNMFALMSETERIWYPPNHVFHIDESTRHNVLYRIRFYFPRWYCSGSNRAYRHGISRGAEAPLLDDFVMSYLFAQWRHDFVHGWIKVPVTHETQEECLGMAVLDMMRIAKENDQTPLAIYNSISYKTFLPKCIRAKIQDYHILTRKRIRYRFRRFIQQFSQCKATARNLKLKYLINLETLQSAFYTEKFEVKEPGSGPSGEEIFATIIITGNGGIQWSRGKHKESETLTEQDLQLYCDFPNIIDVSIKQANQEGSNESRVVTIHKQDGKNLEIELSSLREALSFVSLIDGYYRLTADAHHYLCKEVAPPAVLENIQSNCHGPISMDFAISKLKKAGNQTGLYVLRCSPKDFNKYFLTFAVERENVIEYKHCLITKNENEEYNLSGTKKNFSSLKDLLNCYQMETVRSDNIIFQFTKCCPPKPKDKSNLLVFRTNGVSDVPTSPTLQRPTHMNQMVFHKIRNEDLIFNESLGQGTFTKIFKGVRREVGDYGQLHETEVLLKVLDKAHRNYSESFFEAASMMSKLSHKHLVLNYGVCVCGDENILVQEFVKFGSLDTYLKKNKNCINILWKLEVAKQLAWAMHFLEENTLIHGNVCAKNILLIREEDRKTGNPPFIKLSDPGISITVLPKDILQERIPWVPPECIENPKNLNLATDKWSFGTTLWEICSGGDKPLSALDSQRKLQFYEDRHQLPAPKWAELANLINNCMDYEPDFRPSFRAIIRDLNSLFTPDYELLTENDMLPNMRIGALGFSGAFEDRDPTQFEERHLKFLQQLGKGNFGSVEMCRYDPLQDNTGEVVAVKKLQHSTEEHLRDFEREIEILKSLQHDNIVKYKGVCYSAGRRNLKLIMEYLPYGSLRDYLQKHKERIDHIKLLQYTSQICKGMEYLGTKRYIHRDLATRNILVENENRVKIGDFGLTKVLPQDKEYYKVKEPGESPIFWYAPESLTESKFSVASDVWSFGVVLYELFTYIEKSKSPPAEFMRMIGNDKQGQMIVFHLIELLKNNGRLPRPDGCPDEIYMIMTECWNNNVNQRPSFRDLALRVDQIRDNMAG

By IC50 is commonly meant the concentration that inhibits the measured activity by half. A low value points to greater potency. Turning to `CCOC(=O)CC1(n2cc(-c3nc(-c4cnn(C)c4)cc4nccn34)cn2)CN(S(=O)(=O)C(F)(F)F)C1` [Example 1, ethyl 2-(3-(4-(7-(1-methyl-1H-pyrazol-4-yl)imidazo[1,2-c]pyrimidin-5-yl)-1H-pyrazol-1-yl)-1-(trifluoromethylsulfonyl)azetidin-3-yl)acetate], the IC50 on Human Tyk2 kinase domain was 0.1 to 1 µM; against JAK1 it was > 1 µM; against JAK2 it was > 1 µM; at JAK3, > 1 µM.

`Cn1cc(-c2cc3nccn3c(-c3cnn(C4(CC(=O)O)CN(S(=O)(=O)C(F)(F)F)C4)c3)n2)cn1` [Example 2, 2-(3-(4-(7-(1-methyl-1H-pyrazol-4-yl)imidazo[1,2-c]pyrimidin-5-yl)-1H-pyrazol-1-yl)-1-((trifluoromethyl)sulfonyl)azetidin-3-yl)acetic acid]: the IC50 against Human Tyk2 kinase domain was 0.1 to 1 µM; at JAK1 it was > 1 µM; on JAK2, > 1 µM; against JAK3 it was > 1 µM.

Take `Cn1cc(-c2cc3nccn3c(-c3cnn(C4(CCO)CN(S(=O)(=O)C(F)(F)F)C4)c3)n2)cn1` [Example 3, 2-(3-(4-(7-(1-methyl-1H-pyrazol-4-yl)imidazo[1,2-c]pyrimidin-5-yl)-1H-pyrazol-1-yl)-1-((trifluoromethyl)sulfonyl)azetidin-3-yl)ethanol]: the IC50 at Human Tyk2 kinase domain was in the range of 0.01 to 0.1 µM; against JAK1, 0.1 to 1 µM; at JAK2, 0.1 to 1 µM; against JAK3, 0.1 to 1 µM.

In the case of `COCCC1(n2cc(-c3nc(-c4cnn(C)c4)cc4nccn34)cn2)CN(S(=O)(=O)C(F)(F)F)C1` [Example 4, 5-(1-(3-(2-methoxyethyl)-1-((trifluoromethyl)sulfonyl)azetidin-3-yl)-1H-pyrazol-4-yl)-7-(1-methyl-1H-pyrazol-4-yl)imidazo[1,2-c]pyrimidine], the IC50 against Human Tyk2 kinase domain was 0.1 to 1 µM; against JAK1, > 1 µM; at JAK2, > 1 µM; against JAK3, > 1 µM.

For the compound `CCn1cc(-c2nc(-c3cnn(C)c3)cc3nccn23)cn1` [Example 5, 5-(1-ethyl-1H-pyrazol-4-yl)-7-(1-methyl-1H-pyrazol-4-yl)imidazo[1,2-c]pyrimidine], the IC50 against Human Tyk2 kinase domain was 0.1 to 1 µM; at JAK1, > 1 µM; on JAK2 it was 0.1 to 1 µM; at JAK3, > 1 µM.

As to `Cn1cc(-c2cc3nccn3c(-c3cnn(C(CO)C4CC4)c3)n2)cn1` (stereo not drawn) [Example 6, 2-cyclopropyl-2-(4-(7-(1-methyl-1H-pyrazol-4-yl)imidazo[1,2-c]pyrimidin-5-yl)-1H-pyrazol-1-yl)ethanol], the IC50 was 0.1 to 1 µM against Human Tyk2 kinase domain, > 1 µM at JAK1, > 1 µM on JAK2 and > 1 µM against JAK3.

Turning to `CC#CCCn1cc(-c2nc(-c3cnn(C)c3)cc3nccn23)cn1` [Example 7, 7-(1-Methyl-1H-pyrazol-4-yl)-5-(1-(pent-3-yn-1-yl)-1H-pyrazol-4-yl)imidazo[1,2-c]pyrimidine], the IC50 is 0.1 to 1 µM against Human Tyk2 kinase domain, > 1 µM against JAK1, > 1 µM against JAK2 and > 1 µM against JAK3.

Consider `C#CCCn1cc(-c2nc(-c3cnn(C)c3)cc3nccn23)cn1` [Example 8, 5-(1-(But-3-yn-1-yl)-1H-pyrazol-4-yl)-7-(1-methyl-1H-pyrazol-4-yl)imidazo[1,2-c]pyrimidine], for which the IC50 lay in the range of 0.01 to 0.1 µM against Human Tyk2 kinase domain, 0.1 to 1 µM on JAK1, 0.01 to 0.1 µM on JAK2 and 0.1 to 1 µM at JAK3.

Turning to `Cn1cc(-c2cc3nccn3c(-c3cnn(C(C4CC4)C4CC4)c3)n2)cn1` [Example 9, 5-(1-(Dicyclopropylmethyl)-1H-pyrazol-4-yl)-7-(1-methyl-1H-pyrazol-4-yl)imidazo[1,2-c]pyrimidine], the IC50 on Human Tyk2 kinase domain was 0.01 to 0.1 µM; against JAK1 it was > 1 µM; on JAK2, 0.1 to 1 µM; against JAK3 it was 0.1 to 1 µM.

On to `C=CCC(CC1CC1)n1cc(-c2nc(-c3cnn(C)c3)cc3nccn23)cn1` (stereo not drawn) [Example 10, 5-(1-(1-Cyclopropylpent-4-en-2-yl)-1H-pyrazol-4-yl)-7-(1-methyl-1H-pyrazol-4-yl)imidazo[1,2-c]pyrimidine], for which the IC50 against Human Tyk2 kinase domain is < 0.01 µM; against JAK1, 0.1 to 1 µM; against JAK2, 0.01 to 0.1 µM; against JAK3, 0.1 to 1 µM.

Take `Cn1cc(-c2cc3nccn3c(-c3ccn([C@H](CCF)[C@H]4CC4(F)F)c3)n2)cn1` [Example 29, 5-(1-((R)-1-((R)-2,2-difluorocyclopropyl)-3-fluoropropyl)-1H-pyrrol-3-yl)-7-(1-methyl-1H-pyrazol-4-yl)imidazo[1,2-c]pyrimidine]: the IC50 against Human Tyk2 kinase domain was < 0.01 µM; against JAK2 it was 0.01 to 0.1 µM.

Source of the values: patent publication US20140228349A1, “5,7-SUBSTITUTED-IMIDAZO[1,2-C]PYRIMIDINES” (Array BioPharma Inc., priority 2011, published 2014).
